Measured values: US8710064B2, “2-aryl-4-quinazolinones and their pharmaceutical compositions” (China Medical University, priority 2011, dated 2014)

How the values were obtained:
[1] = test system: human glia cell line SVGP12; assay: MTS cell viability assay, normal glia cell line SVGP12; assay type: cell-based; conditions: 0.00625-1 μM
Protocol: The human glioma cell lines U87, U251, T98G, U373, and rat glioma cell line RT2 provided by Dr. Michael Hsiao (Genomics Research Center, Academia Sinica, Taiwan) were cultured in Dulbecco's Modified Eagle medium (DMEM) (Caisson) supplemented with 10% fetal bovine serum (FBS) (Sigma-Aldrich), 2 mM L-glutamine (Caisson), 100 U/ml penicillin, and 100 μg/ml streptomycin (Caisson). The rat glioma C6 cell line provided by Dr. Shun-Fen Tzeng (National Cheng Kung University, Taiwan) was cultured in DMEM/F12 (Caisson) supplemented with 10% fetal bovine serum, 2 mM L-glutamine, 100 U/ml penicillin, and 100 μg/ml streptomycin. […] Cell proliferation was determined by MTS (tetrazolium compound, 3-(4,5-dimethylthiazol-2-yl)-5-(3-carboxymethoxyphenyl)-2-(4-sulfophenyl)-2H-tetrazolium) assay (Promega). […] The absorbance of soluble formazan was measured at 490 nm with microplate reader (Molecular device). The cell viability was determined by the percentage of the absorption relative to untreated control. […] To investigate the influence of MJ-66 on normal glia such as human glia cell line SVGP12 and rat primary glia cells, cells were treated with different concentrations of MJ-66 in vitro (0.00625, 0.0125, 0.025, 0.05, 0.1 and 1 μM) for different time durations (0, 6, 12 and 24 hours) and the cell viability was assessed by MTS assay. […]

C6 glioma cells = assay: G1 synchronized by Ara-C, flow cytometry; assay type: cell-based, rat; conditions: 60 nM MJ-66 after 41.6 nM Ara-C 12 hours; at 12th and 24th hours
Protocol: At indicated time points (0, 6, 12 and 24 hr), >10^6 cells were collected and fixed in 70% ethanol over 1 hour at −20° C. After staining with PI as described, DNA content of ten thousand cells was analyzed by flow cytometry.
To investigate the influence of MJ-66 on normal glia such as human glia cell line SVGP12 and rat primary glia cells, cells were treated with different concentrations of MJ-66 in vitro (0.00625, 0.0125, 0.025, 0.05, 0.1 and 1 μM) for different time durations (0, 6, 12 and 24 hours) and the cell viability was assessed by MTS assay. Cells alone or treated with DMSO were used as control. […] However, most glia cells in animals are static and their proliferation rate is almost silent. Therefore, cytosine arabinoside (Ara-C), a DNA synthesis inhibitor, was further used to inhibit glioma cell proliferation and glioma cells were then treated with MJ-66 or DMSO as described in “General materials and methods”. Specifically, after C6 glioma cells were treated with 41.6 nM Ara-C for 12 hours, and then treated with solvent (DMSO) or 60 nM MJ-66 for 0, 6, 12 and 24 hours, the cell cycle distributions and DNA content of the cells were monitored by flow cytometry with propidium iodide staining C6 glioma cells treated with 41.6 nM Ara-C for 12 hours (12 hr) were detected by flow cytometry with propidium iodide staining as control.

H460 = assay: trypan blue exclusion assay, H460 cells; assay type: cell-based; conditions: NCI-H460, H460 human non-small cell lung cancer
Protocol: Hep3B (human hepatocellular carcinoma) and H460 (lung non-small carcinoma) cells were grown in monolayer culture in Dulbecco's modified Eagle's medium (DMEM) (Life Technologies, Rockville, Md., USA) containing 5% fetal bovine serum (HyClone, Logan, Utah, USA), 100 U/ml penicillin and 100 μg/ml streptomycin (Gibco BRL, Rockville, Md., USA) and 2 mM glutamine (Merck, Darmstadt, Germany).
Cell viability was also determined by trypan-blue exclusion assay. Cells were seeded in 6-well plates (2×10^4/well) for trypan blue exclusion assay, and incubated for 24 hours at 37° C. Culture medium containing test compound or DMSO (0.006%) was added to each well, and cells were incubated at 37° C. At indicated time points (0, 24, 48, 72 and 96 hr), cells were suspended with 0.05% trypsin-EDTA, and stained with trypan-blue dye (0.4%) (Sigma). The cell viability was evaluated by the percentage of death relative to the total cell, and cell growth curve was determined by number of live cells relative to the total number of cells.
The anti-proliferation effects of Compounds 17-31 on M21, CH27, H460, Hep3B and HSC-3 cells were evaluated by the trypan blue exclusion assay.

In the case of `O=c1[nH]c(-c2cccc3ccccc23)nc2ccc(N3CCCC3)cc12` [Compound 23, 6-(Pyrrolidin-1-yl)-2-(naphthalen-1-yl)quinazolin-4-one], the “cell viability of SVGP12” value [1] is reported as “inhibited”, the “cell death of G1 arrest (Ara-C-treated) glioma cells” value (C6 glioma cells) is reported as “not induced cell death” and the IC50 (H460) is reported as 75 nM.
